For eight compounds, MIC results are on record in ChEMBL document CHEMBL5550210, “Discovery of Novel α,β-Unsaturated Amide Derivatives as Candidate Antifungals to Overcome Fungal Resistance” (J Med Chem, 2024).

Each structure is given as a SMILES string. Values after ≈ are worked out from the molar mass of the structure shown.

Holding throughout (assay type): functional
The subject of experiment [1] is Candida albicans. As to the kind of experiment: Antifungal activity against Candida albicans CPCC400616 assessed as inhibition of fungal growth by CLSI protocol based microdilution method.
A further experiment has as its system Candida tropicalis. As to the kind of experiment: Antifungal activity against Candida tropicalis CGMCC 2.3739 assessed as inhibition of fungal growth by CLSI protocol based microdilution method. (In general: Dilution methods test growth across graded concentrations, often in twofold steps.)
In experiment [2] the test system is Candida albicans. Briefly: Antifungal activity against fluconazole-resistant Candida albicans 904 assessed as inhibition of fungal growth by CLSI based microdilution method.
In experiment [3] the test system is Candida albicans. As to the kind of experiment: Antifungal activity against fluconazole-resistant Candida albicans CaR assessed as inhibition of fungal growth by CLSI based microdilution method.
In the next experiment the test system is Nakaseomyces glabratus. Briefly: Antifungal activity against Candida glabrata assessed as inhibition of fungal growth by CLSI protocol based microdilution method.
Experiment [4] has as its system Candida albicans. As to the kind of experiment: Antifungal activity against fluconazole-resistant Candida albicans 901 assessed as inhibition of fungal growth by CLSI based microdilution method.
The test system of experiment [5] is Candida albicans. As to the kind of experiment: Antifungal activity against fluconazole-resistant Candida albicans 632 assessed as inhibition of fungal growth by CLSI based microdilution method.
The test system of the next experiment is Candida parapsilosis. As to the kind of experiment: Antifungal activity against Candida parapsilosis ATCC 22019 assessed as inhibition of fungal growth by CLSI protocol based microdilution method. The settings on record: Lodderomyces parapsilosis.
Another experiment has as its system Pichia kudriavzevii. Briefly: Antifungal activity against Candida krusei AS 2.1045 assessed as inhibition of fungal growth by CLSI protocol based microdilution method.
Experiment [6] concerns Candida albicans. As to the kind of experiment: Antifungal activity against fluconazole-resistant Candida albicans 17 assessed as inhibition of fungal growth by CLSI based microdilution method.
Another experiment has as its system Aspergillus fumigatus. As to the kind of experiment: Antifungal activity against Aspergillus fumigatus CGMCC 3.7795 assessed as inhibition of fungal growth by CLSI protocol based microdilution method.
For experiment [7], the system named is Candida albicans. As to the kind of experiment: Antifungal activity against Candida albicans SC5314 assessed as inhibition of fungal growth by CLSI protocol based microdilution method.
The subject of the next experiment is Cryptococcus neoformans. Briefly: Antifungal activity against Cryptococcus neoformans CGMCC2.3161 assessed as inhibition of fungal growth by CLSI protocol based microdilution method.

As usually defined, the MIC is the smallest concentration in the dilution series that meets the test's criterion for growth inhibition. Regarding `O=C(/C=C/c1ccc(COC(Cn2ccnc2)c2ccc(Cl)cc2Cl)cc1)Nc1cccc(Br)c1` (centres undefined), the MIC turned out to be 0.25 µg/mL (≈ 0.438 µM) in the experiment on Candida albicans [1]; 64 µg/mL (≈ 112 µM) with Candida tropicalis; 2 µg/mL (≈ 3.5 µM) in the experiment with Candida albicans [2]; 128 µg/mL (≈ 224 µM) with Candida albicans [3]; 64 µg/mL (≈ 112 µM) in the experiment on Nakaseomyces glabratus; 4 µg/mL (≈ 7 µM) in the experiment on Candida albicans [4]. Further, the MIC was 4 µg/mL (≈ 7 µM) in the experiment with Candida albicans [5]; 0.125 µg/mL (≈ 0.219 µM) with Candida parapsilosis; 64 µg/mL (≈ 112 µM) in the experiment on Pichia kudriavzevii; 128 µg/mL (≈ 224 µM) in the experiment on Candida albicans [6]; 4 µg/mL (≈ 7 µM) in the experiment on Aspergillus fumigatus; 0.125 µg/mL (≈ 0.219 µM) with Candida albicans [7]. In addition, the MIC with Cryptococcus neoformans came to 8 µg/mL (≈ 14 µM).

Take `O=C(/C=C/c1ccc(COC(Cn2ccnc2)c2ccc(Cl)cc2Cl)cc1)Nc1ccc(F)cc1` (centres undefined): the MIC turned out to be 0.06 µg/mL (≈ 0.118 µM) in the experiment with Candida albicans [1]; 2 µg/mL (≈ 3.92 µM) in the experiment with Candida tropicalis; 0.5 µg/mL (≈ 0.98 µM) in the experiment on Candida albicans [2]; 4 µg/mL (≈ 7.84 µM) with Candida albicans [3]; 32 µg/mL (≈ 62.7 µM) in the experiment on Nakaseomyces glabratus; 1 µg/mL (≈ 1.96 µM) in the experiment on Candida albicans [4]. Moreover, the MIC in the experiment with Candida albicans [5] was 0.25 µg/mL (≈ 0.49 µM); in the experiment on Candida parapsilosis, 32 µg/mL (≈ 62.7 µM); in the experiment with Pichia kudriavzevii it was 64 µg/mL (≈ 125 µM); in the experiment with Candida albicans [6] it was 128 µg/mL (≈ 251 µM); in the experiment with Aspergillus fumigatus, 1 µg/mL (≈ 1.96 µM); with Candida albicans [7] it was 0.03 µg/mL (≈ 0.0588 µM). For the same compound, the MIC in the experiment on Cryptococcus neoformans is 2 µg/mL (≈ 3.92 µM).

Regarding `O=C(/C=C/c1ccc(COC(Cn2ccnc2)c2ccc(Cl)cc2Cl)cc1)Nc1ccccc1` (centres undefined), the MIC is 0.06 µg/mL (≈ 0.122 µM) in the experiment on Candida albicans [1]; 2 µg/mL (≈ 4.06 µM) in the experiment on Candida tropicalis; 0.5 µg/mL (≈ 1.02 µM) in the experiment on Candida albicans [2]; 8 µg/mL (≈ 16.2 µM) in the experiment with Candida albicans [3]; 64 µg/mL (≈ 130 µM) with Nakaseomyces glabratus; 1 µg/mL (≈ 2.03 µM) in the experiment on Candida albicans [4]. Further, the MIC amounted to 0.25 µg/mL (≈ 0.508 µM) in the experiment with Candida albicans [5]; 32 µg/mL (≈ 65 µM) in the experiment on Candida parapsilosis; 64 µg/mL (≈ 130 µM) with Pichia kudriavzevii; 128 µg/mL (≈ 260 µM) in the experiment on Candida albicans [6]; 1 µg/mL (≈ 2.03 µM) with Aspergillus fumigatus; 0.03 µg/mL (≈ 0.0609 µM) in the experiment with Candida albicans [7]. Also, the MIC in the experiment with Cryptococcus neoformans was found to be 1 µg/mL (≈ 2.03 µM).

Consider `O=C(/C=C/c1ccc(COC(Cn2ccnc2)c2ccc(Cl)cc2Cl)cc1)Nc1ccc(C(F)(F)F)cc1` (centres undefined), for which the minimal inhibitory concentration (MIC) with Candida albicans [1] was 0.03 µg/mL (≈ 0.0535 µM); with Candida tropicalis, 64 µg/mL (≈ 114 µM); in the experiment on Candida albicans [2], 8 µg/mL (≈ 14.3 µM); in the experiment on Candida albicans [3] it was 64 µg/mL (≈ 114 µM); with Nakaseomyces glabratus it was 32 µg/mL (≈ 57.1 µM); in the experiment with Candida albicans [4], 16 µg/mL (≈ 28.6 µM). The MIC is 2 µg/mL (≈ 3.57 µM) in the experiment with Candida albicans [5]; 0.5 µg/mL (≈ 0.892 µM) with Candida parapsilosis; 64 µg/mL (≈ 114 µM) in the experiment on Pichia kudriavzevii; 128 µg/mL (≈ 228 µM) with Candida albicans [6]; 32 µg/mL (≈ 57.1 µM) with Aspergillus fumigatus; 0.03 µg/mL (≈ 0.0535 µM) with Candida albicans [7]. Further, the MIC in the experiment on Cryptococcus neoformans was 2 µg/mL (≈ 3.57 µM).

As for `O=C(/C=C/c1ccc(COC(Cn2ccnc2)c2ccc(Cl)cc2Cl)cc1)Nc1ccc(Br)cc1` (centres undefined), the minimal inhibitory concentration (MIC) with Candida albicans [1] is 0.06 µg/mL (≈ 0.105 µM); in the experiment with Candida tropicalis, 32 µg/mL (≈ 56 µM); with Candida albicans [2], 4 µg/mL (≈ 7 µM); in the experiment with Candida albicans [3], 16 µg/mL (≈ 28 µM); in the experiment with Nakaseomyces glabratus it was 8 µg/mL (≈ 14 µM); in the experiment on Candida albicans [4] it was 8 µg/mL (≈ 14 µM). For the same compound, the MIC came to 4 µg/mL (≈ 7 µM) in the experiment with Candida albicans [5]; 0.25 µg/mL (≈ 0.438 µM) in the experiment with Candida parapsilosis; 16 µg/mL (≈ 28 µM) in the experiment on Pichia kudriavzevii; 32 µg/mL (≈ 56 µM) in the experiment on Candida albicans [6]; 16 µg/mL (≈ 28 µM) with Aspergillus fumigatus; 0.03 µg/mL (≈ 0.0525 µM) in the experiment with Candida albicans [7]. The MIC in the experiment on Cryptococcus neoformans was 4 µg/mL (≈ 7 µM).

As to `CC(C)NC(=O)/C=C/c1ccc(COC(Cn2ccnc2)c2ccc(Cl)cc2Cl)cc1` (centres undefined), the MIC was 0.125 µg/mL (≈ 0.273 µM) in the experiment with Candida albicans [1]; 4 µg/mL (≈ 8.73 µM) in the experiment with Candida tropicalis; 8 µg/mL (≈ 17.5 µM) in the experiment with Candida albicans [2]; 16 µg/mL (≈ 34.9 µM) in the experiment on Candida albicans [3]; 4 µg/mL (≈ 8.73 µM) in the experiment with Nakaseomyces glabratus; 4 µg/mL (≈ 8.73 µM) with Candida albicans [4]. Moreover, the MIC with Candida albicans [5] amounted to 1 µg/mL (≈ 2.18 µM); in the experiment on Candida parapsilosis it was 2 µg/mL (≈ 4.36 µM); with Pichia kudriavzevii, 4 µg/mL (≈ 8.73 µM); with Candida albicans [6] it was 16 µg/mL (≈ 34.9 µM); with Aspergillus fumigatus, 2 µg/mL (≈ 4.36 µM); in the experiment with Candida albicans [7] it was 0.5 µg/mL (≈ 1.09 µM). Besides, the minimum inhibitory concentration (MIC) with Cryptococcus neoformans was 8 µg/mL (≈ 17.5 µM).

On to `CCNC(=O)/C=C/c1ccc(COC(Cn2ccnc2)c2ccc(Cl)cc2Cl)cc1` (centres undefined), for which the MIC with Candida albicans [1] worked out at 0.5 µg/mL (≈ 1.13 µM); with Candida tropicalis, 4 µg/mL (≈ 9 µM); in the experiment on Candida albicans [2] it was 16 µg/mL (≈ 36 µM); with Candida albicans [3] it was 128 µg/mL (≈ 288 µM); in the experiment with Nakaseomyces glabratus, 16 µg/mL (≈ 36 µM); in the experiment on Candida albicans [4], 16 µg/mL (≈ 36 µM). The MIC in the experiment with Candida albicans [5] stood at 2 µg/mL (≈ 4.5 µM); in the experiment on Candida parapsilosis, 8 µg/mL (≈ 18 µM); in the experiment on Pichia kudriavzevii, 32 µg/mL (≈ 72 µM); in the experiment with Candida albicans [6], 128 µg/mL (≈ 288 µM); in the experiment with Aspergillus fumigatus it was 8 µg/mL (≈ 18 µM); in the experiment on Candida albicans [7], 1 µg/mL (≈ 2.25 µM). For the same compound, in the experiment on Cryptococcus neoformans, the MIC came to 8 µg/mL (≈ 18 µM).

With `CCCNC(=O)/C=C/c1ccc(COC(Cn2ccnc2)c2ccc(Cl)cc2Cl)cc1` (centres undefined), the MIC was determined as 0.06 µg/mL (≈ 0.131 µM) with Candida albicans [1]; 8 µg/mL (≈ 17.5 µM) in the experiment on Candida tropicalis; 16 µg/mL (≈ 34.9 µM) in the experiment on Candida albicans [2]; 64 µg/mL (≈ 140 µM) in the experiment on Candida albicans [3]; 8 µg/mL (≈ 17.5 µM) in the experiment on Nakaseomyces glabratus; 16 µg/mL (≈ 34.9 µM) in the experiment on Candida albicans [4]. The MIC in the experiment with Candida albicans [5] was 2 µg/mL (≈ 4.36 µM); in the experiment with Candida parapsilosis it was 0.125 µg/mL (≈ 0.273 µM); in the experiment with Pichia kudriavzevii it was 4 µg/mL (≈ 8.73 µM); in the experiment with Candida albicans [6] it was 32 µg/mL (≈ 69.8 µM); with Aspergillus fumigatus, 4 µg/mL (≈ 8.73 µM); in the experiment on Candida albicans [7], 0.03 µg/mL (≈ 0.0654 µM). For the same compound, the MIC in the experiment on Cryptococcus neoformans was found to be 4 µg/mL (≈ 8.73 µM).
